Test results published in patent US20220389026A1, “TETRACYCLIC COMPOUND USED AS CDC7 INHIBITOR” (Chia Tai Tianqing Pharmaceutical Group Co., Ltd., priority 2019, published 2022).
Like-named read-outs stand apart in the source and are kept apart here.

How the values were obtained:
[1] = test system: COLO205 cells; experiment: Inhibitory activity against COLO205 cell proliferation (CellTiter-Glo); type: cell-based; details: Homo sapiens, COLO 205, 72 h; 3 days incubation
Experimental: Experimental Example 2. Detection of Inhibitory Effect of Compounds Against Activity of Colo205 Cells
1640 medium; fetal bovine serum; penicillin/streptomycin antibiotics purchased from Wisent;
CellTiter-Glo (chemiluminescence detection reagent for cell viability) reagent purchased from Promega;
COLO205 cell line purchased from Wuhan Procell Life Science&Technology Co., Ltd; and
(§1) Nivo multi-marker analyzer (PerkinElmer).
COLO205 cells were plated on to white 96-well plates by adding 80 μL of cell suspension (containing 3000 COLO205 cells) to each well. The cell plate was incubated in a CO2 incubator overnight.
A test compound was serially 3-fold diluted to an 8th concentration, i.e., from 2 mM to 920 nM, and the duplicate well experiment was set up. […] Another cell plate was read for signal values on the day of compound addition, and these values were used as the […] in data analysis. The chemiluminescence detection reagent for cell viability was added to this cell plate at 25 μL per well and the luminescence signals were stabilized by incubation at room temperature for 10 min. Readings were taken using a multi-marker analyzer.
The chemiluminescence detection reagent for cell viability was added to the cell plate at 25 μL per well and the luminescence signals were stabilized by incubation at room temperature for 10 min. […]

[2] = target: T1, CDC7/DBF4 (Homo sapiens, UniProt O00311); experiment: Inhibitory effect against activity of Cdc7/DBF4 kinase (ADP-Glo kit); type: biochemical; set-up: purchased Promega; details: 10 μM ATP, 25° C., 60 min
Experimental: Experimental Example 1. Detection of Inhibitory Effect of Compounds Against Activity of Cdc7/DBF4 Kinase
Cdc7/DBF4 kinase detection kit purchased from Promega; and
as §1
An enzyme, a substrate, adenosine triphosphate and an inhibitor were diluted with the kinase buffer in the kit.
A test compound was serially 5-fold diluted to an 8th concentration, i.e., from 10 μM to 0.13 nM, with the DMSO concentration being 5%, and the duplicate well experiment was set up. To a microplate were added 1 μL of inhibitors of various concentration gradients, 2 μL of CDC7/DBF4 kinase (6.25 ng), 2 μL of a mixture of substrate and ATP (10 μM adenosine triphosphate, 0.2 μg/μL substrate), and the final concentration gradient of the compound was diluted from 2 μM to 0.025 nM. The reaction system was left reacting at 25° C. for 60 min. After the reaction was completed, 5 μL of ADP-Glo reagent was added to each well, and the reaction was continued at 25° C. for 40 min. After the reaction was completed, 10 μL of the kinase detection reagent was added to each well. After 30 min of reaction at 25° C., the chemiluminescence was read using a multi-marker analyzer, with an integration time of 0.5 s.
The original data were converted to inhibition rate using the equation (Sample−Min)/(Max−Min)×100%, and the IC50 value was then curve fitted using four parameters (obtained from the “log(inhibitor) vs. response-Variableslope” model in GraphPadPrism). Table 1 provides the inhibitory activity of the compounds disclosed herein against Cdc7/DBF4 kinase.

[3] = test system: colo205 cell line with high expression of Cdc7; details: read-out: COL0205 IC50; cited from earlier work
[4] = test system: tumors in 25 PDX models; details: cited from earlier work
[5] = cited from earlier work
[6] = target: T1, CDC7/DBF4; details: cited from earlier work

T1 sequence (O00311 whole entry): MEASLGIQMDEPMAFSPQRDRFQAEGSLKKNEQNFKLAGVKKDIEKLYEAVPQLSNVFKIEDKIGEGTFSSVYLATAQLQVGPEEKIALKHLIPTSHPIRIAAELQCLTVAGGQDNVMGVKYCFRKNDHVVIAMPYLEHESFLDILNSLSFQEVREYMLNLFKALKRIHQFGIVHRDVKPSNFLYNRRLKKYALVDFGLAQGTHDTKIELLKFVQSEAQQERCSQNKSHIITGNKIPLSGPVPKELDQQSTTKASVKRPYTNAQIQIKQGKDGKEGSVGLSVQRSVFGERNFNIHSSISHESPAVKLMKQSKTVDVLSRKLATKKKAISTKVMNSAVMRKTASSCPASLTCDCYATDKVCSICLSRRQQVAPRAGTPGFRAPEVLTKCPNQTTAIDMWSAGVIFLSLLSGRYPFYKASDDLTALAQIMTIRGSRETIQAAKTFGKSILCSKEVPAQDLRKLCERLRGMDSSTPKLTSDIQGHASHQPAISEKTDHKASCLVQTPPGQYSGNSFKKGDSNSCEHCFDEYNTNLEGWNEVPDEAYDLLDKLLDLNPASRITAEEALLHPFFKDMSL
T1 sequence (Q9UBU7 whole entry partner): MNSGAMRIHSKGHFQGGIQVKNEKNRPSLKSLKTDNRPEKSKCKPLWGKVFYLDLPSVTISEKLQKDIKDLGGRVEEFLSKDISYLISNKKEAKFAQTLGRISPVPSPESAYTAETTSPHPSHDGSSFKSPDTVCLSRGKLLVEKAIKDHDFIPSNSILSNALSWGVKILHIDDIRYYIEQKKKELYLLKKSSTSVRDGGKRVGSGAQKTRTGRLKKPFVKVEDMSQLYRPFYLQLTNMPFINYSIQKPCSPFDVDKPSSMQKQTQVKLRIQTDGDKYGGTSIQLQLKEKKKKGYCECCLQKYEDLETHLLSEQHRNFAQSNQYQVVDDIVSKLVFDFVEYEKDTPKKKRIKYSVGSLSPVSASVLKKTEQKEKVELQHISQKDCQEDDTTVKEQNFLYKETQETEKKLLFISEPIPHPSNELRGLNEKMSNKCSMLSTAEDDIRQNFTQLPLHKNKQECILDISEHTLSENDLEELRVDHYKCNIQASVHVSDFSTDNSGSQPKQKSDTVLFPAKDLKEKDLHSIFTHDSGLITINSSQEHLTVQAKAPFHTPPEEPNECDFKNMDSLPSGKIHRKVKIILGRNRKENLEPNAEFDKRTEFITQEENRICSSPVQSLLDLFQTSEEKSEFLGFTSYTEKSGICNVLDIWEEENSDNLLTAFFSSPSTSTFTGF

IC50 [2] [nM] | Compound | other results
 | Cc1[nH]ncc1-c1cc2nc([C@@H]3CC4CCN3CC4)[nH]c(=O)c2s1 [TAK-931] | IC50 [3]: 85.5 nM; inhibitory activity against tumors in PDX models [4]: excellent inhibitory activity; clearance rate in vivo [5]: high clearance rate; half-life in vivo [5]: short half-life; IC50 [6]: 2.59 nM
1.97 | CN1CCC[C@@H]1c1nc2c3c(oc2c(=O)[nH]1)-c1c[nH]nc1CCC3 [Compound 3-2] | 
0.6 | CN1CCC[C@H]1c1nc2c3c(oc2c(=O)[nH]1)-c1c[nH]nc1CCC3 [Compound 3-1] | 
0.95 | O=c1[nH]c([C@@H]2CCCN2)nc2c3c(oc12)-c1c[nH]nc1CCC3 [Compound 2-1] | 
1.41 | O=c1[nH]c([C@H]2CCCN2)nc2c3c(oc12)-c1c[nH]nc1CCC3 [Compound 2-2] | 

Compound | IC50 [2] [nM] | other results
O=c1[nH]c(C2CC3CCN2CC3)nc2c3c(oc12)-c1c[nH]nc1CCC3 (single isomer, unassigned) [Compound 1-2] | 2.8 | IC50 [1]: 51.7 nM
O=c1[nH]c(C2CC3CCN2CC3)nc2c3c(oc12)-c1c[nH]nc1CCC3 (single isomer, unassigned) [Compound 1-1] | 1.49 | 
